# Tested on: bovine ovarian cortex tissue
# Assay: Endothelial cell density (Factor VIII immunolocalization) in cultured ovarian cortex tissue
# Assay type: cell-based
# Details: treatment mean over 0 h, 4 h, 24 h, 48 h; L-Mesitran 0.2%, VEGF 50 ng.mL-1; in vitro culture TCM-199 with 10% cow serum
# From the text: Four mature crossbred beef cows (12 months of age) were used for this study. […] The 0.2% v/v concentration (L-Mesitran) was chosen according to the highest reported pro-angiogenic effect for this medical grade honey in an in vitro tissue culture. The ovarian cortex endothelial immunolocalization was quantified using Factor VIII [9] R Ag. Rabbit Polyclonal Antibody (ref 760-2642; BenchMark ULTRA IHC/ISH Module staining protocol; Ventana Medical Systems, Inc.; Roche, USA) at concentrations of 2.26 µg/ml, and Fiji software for the digital analysis, after 0 h, 4 h, 24 h and 48 h in each of the mentioned 4 groups. Cellular cytotoxicity (quantitation of lactate dehydrogenase, LDH [11], in cell culture supernatant) was also evaluated in the same mentioned time periods (CytoTox 96® Non-Radioactive Cytotoxicity Assay G1782, Promega GloMax Multi Detection System).
# Data from ovarian cortex tissue endothelial density (immunohistochemistry data) and LDH quantification in cell culture supernatant, were analysed using the proc glimmix of SAS (Statistical Analysis Systems, SAS Inst., Inc., Cary, N.C., USA). The models included treatments and hours as fixed effects, and animal (cow) as random (co-variable) effect. The means of each treatment/hours were calculated and compared by the PDIFF multiple comparison test. The differences were considered significant for P≤0.05.
substance,measurement,value
VEGF,"Endothelial cell density (Factor VIII immunolocalization), treatment effect",0.2942±0.1486

# Reference: patent US11160272B2, “Methods for preserving tissue with medical grade honey” (TRITICUM EXPLOITATIE B.V., priority 2017, dated 2021)
